This is an account of results in article PMC8286840, “Identifying SARS-CoV-2 antiviral compounds by screening for small molecule inhibitors of Nsp3 papain-like protease” (Biochemical Journal, 2021).

Like-named read-outs stand apart in the source and are kept apart here. Where a SMILES comes first, the peptide text is derived from it. Bridges are numbered along the chain shown (N, C = ends). [ ]: non-standard residue; d: D form. 2Nal = N[C@@H](Cc1ccc2ccccc2c1)C(=O)O; Lys(iPr) = CC(C)NCCCC[C@H](N)C(=O)O

The target of test [1] is T1, SARS-CoV-2 PLpro (nsp3 1564–1878) (Severe acute respiratory syndrome coronavirus 2, UniProt P0DTD1). As to the kind of experiment: biochemical. Also on record: FRET-quenched peptide (Pro3) cleavage by PLpro, 10 min pre-incubation, slope over 20 min, normalised to no-compound control. The following applies: high concentration screen, read-out: % of control remaining.
The target of test [2] is T1, SARS-CoV-2 PLpro (nsp3 1564–1878). As to the kind of experiment: biochemical. Also on record: FRET-quenched peptide (Pro3) cleavage by PLpro, 10 min pre-incubation, slope over 20 min, normalised to no-compound control. The following applies: low concentration screen, read-out: % of control remaining.

As for `O=C(O)[C@@H]1CCCN1` [L-Proline], the remaining activity at 3.75 µM in test [1] (Well no.=7737) was found to be 108%; in test [1] (Well no.=8324), 97.3%. Moreover, the figures for the remaining activity at 1.25 µM in test [2] (Well no.=7737) and in test [2] (Well no.=8324) were 105% and 101%, respectively.
For the compound `O=C1CC[C@@H](C(=O)O)N1` [L-Pyroglutamic acid], the remaining activity at 3.75 µM in test [1] (Well no.=6783) was 104%. The remaining activity at 1.25 µM in test [2] (Well no.=6783) was found to be 102%.
In the case of `C[Se]CC[C@H](N)C(=O)O` [L-SelenoMethionine], the remaining activity at 3.75 µM in test [1] (Well no.=6681) is 103%. Also, in test [2] (Well no.=6681), the remaining activity at 1.25 µM was found to be 106%.
Regarding `N[C@@H](CO)C(=O)O` [L-Serine], in test [1] (Well no.=7695), the remaining activity at 3.75 µM stood at 110%. Moreover, in test [2] (Well no.=7695), the remaining activity at 1.25 µM came out at 105%.
In the case of `CCNC(=O)CC[C@H](N)C(=O)O` [L-Theanine], in test [1] (Well no.=3522), the remaining activity at 3.75 µM was found to be 99%. In addition, the remaining activity at 1.25 µM in test [2] (Well no.=3522) was found to be 97.3%.
`N[C@@H](Cc1c[nH]c2ccccc12)C(=O)O` [L-Tryptophan]: the remaining activity at 3.75 µM amounted to 98.2% in test [1] (Well no.=1471) and 100% in test [1] (Well no.=7361). Further, the remaining activity at 1.25 µM stood at 96.7% in test [2] (Well no.=1471) and 100% in test [2] (Well no.=7361).
Consider `CC(C)[C@H](N)C(=O)N[C@@H](Cc1ccccc1)C(=O)O` [L-Valyl-L-phenylalanine] (H-Val-Phe-OH), for which the remaining activity at 3.75 µM in test [1] (Well no.=8650) came out at 101%. For the same compound, in test [2] (Well no.=8650), the remaining activity at 1.25 µM was 103%.
Take `C=CC[C@H](N)C(=O)O` [L-allylglycine]: in test [1] (Well no.=292), the remaining activity at 3.75 µM was 91.8%. Also, in test [2] (Well no.=292), the remaining activity at 1.25 µM is 91.4%.
With `C[C@](N)(Cc1ccc(O)c(O)c1)C(=O)O` [L-alpha-Methyl DOPA], in test [1] (Well no.=1039), the remaining activity at 3.75 µM was 98.3%. Besides, the remaining activity at 1.25 µM in test [2] (Well no.=1039) is 97.7%.
Consider `C[C@](N)(Cc1ccc(O)cc1)C(=O)O` [L-alpha-Methyl-p-tyrosine], for which the remaining activity at 3.75 µM in test [1] (Well no.=843) was 106%. For the same compound, in test [2] (Well no.=843), the remaining activity at 1.25 µM was 104%.
Turning to `O=C(O)[C@@H]1CCN1` [L-azetidine-2-carboxylic acid], in test [1] (Well no.=103), the remaining activity at 3.75 µM was 104%. Also, the remaining activity at 1.25 µM in test [2] (Well no.=103) came to 105%.
As for `C[N+](C)(C)C[C@H](O)CC(=O)[O-]` [L-carnitine], the remaining activity at 3.75 µM in test [1] (Well no.=8100) was 104%. In test [2] (Well no.=8100), the remaining activity at 1.25 µM was 106%.
For the compound `N[C@@H](Cc1cc(I)c(Oc2cc(I)c(O)c(I)c2)c(I)c1)C(=O)O` [L-thyroxine], the remaining activity at 3.75 µM is 88.2% in test [1] (Well no.=2298) and 105% in test [1] (Well no.=7299). Further, the values for the remaining activity at 1.25 µM in test [2] (Well no.=2298) and in test [2] (Well no.=7299) were 86.3% and 102%, respectively.
With `O=C(Nc1cnc(-c2ccncc2F)c(-c2cccnc2)n1)C1CC1` [LAS101057], the remaining activity at 3.75 µM in test [1] (Well no.=8599) amounted to 103%. Further, the remaining activity at 1.25 µM in test [2] (Well no.=8599) amounted to 105%.
Take `O=C(c1cn(Cc2cncn2Cc2ccc(Br)cc2)cc1-c1cccc2ccccc12)N1CCOCC1` [LB42708]: the remaining activity at 3.75 µM in test [1] (Well no.=8766) was found to be 91.4%. The remaining activity at 1.25 µM in test [2] (Well no.=8766) is 99.3%.
On to `N#Cc1ccc([C@H]2CCc3cncn32)c(F)c1` [LCI699], for which, in test [1] (Well no.=8526), the remaining activity at 3.75 µM came out at 98.2%. Moreover, the remaining activity at 1.25 µM in test [2] (Well no.=8526) is 98.2%.
On to `CN[C@@H](C)C(=O)N[C@H](C(=O)N1CCC[C@H]1c1nc(C(=O)c2ccc(F)cc2)cs1)C1CCCCC1` [LCL161], for which the remaining activity at 3.75 µM in test [1] (Well no.=6594) was determined as 94.5%. The remaining activity at 1.25 µM in test [2] (Well no.=6594) is 91.2%.
As for `c1ccc2c(-c3cnn4cc(-c5ccc(N6CCNCC6)cc5)cnc34)ccnc2c1` [LDN193189], the remaining activity at 3.75 µM in test [1] (Well no.=4956) is 97.7%. For the same compound, the remaining activity at 1.25 µM in test [2] (Well no.=4956) was 99.3%.
Regarding `CC(=O)O/N=C1\C(=O)N(Cc2cc(Cl)ccc2Cl)c2ccc(Cl)cc21` [LDN-57444], in test [1] (Well no.=5908), the remaining activity at 3.75 µM came to 91.7%. For the same compound, the remaining activity at 1.25 µM in test [2] (Well no.=5908) amounted to 94.9%.
For the compound `CN1CCc2ccccc2Cc2[nH]c3ccccc3c2CC1` [LE 300], in test [1] (Well no.=1027), the remaining activity at 3.75 µM was 101%. Moreover, the remaining activity at 1.25 µM in test [2] (Well no.=1027) was 101%.
In the case of `C/C(O)=C(\C#N)C(=O)Nc1cc(Br)ccc1Br` [LFM-A13 - 2-Cyano-N-(2,5-dibromophenyl)-3-hydroxy-2-butenamide], the remaining activity at 3.75 µM in test [1] (Well no.=2384) stood at 102%. In addition, the remaining activity at 1.25 µM in test [2] (Well no.=2384) is 101%.
For `C/C(O)=C(\C#N)C(=O)Nc1cc(Br)ccc1Br` [LFM-A13], the remaining activity at 3.75 µM in test [1] (Well no.=789) came out at 97.7%. For the same compound, the remaining activity at 1.25 µM in test [2] (Well no.=789) was determined as 99.1%.
Regarding `Clc1ccc(Nc2nc3ccccc3c3nc(C4CCCCC4)[nH]c23)cc1Cl` [LUF6000], the remaining activity at 3.75 µM in test [1] (Well no.=8661) came out at 93.1%. The remaining activity at 1.25 µM in test [2] (Well no.=8661) worked out at 93.9%.
Turning to `CC1(C)C(=O)N(CCN2CCC(C(=O)c3ccc(F)cc3)CC2)c2ccccc21` [LY310762], in test [1] (Well no.=7237), the remaining activity at 3.75 µM was 100%. Further, the remaining activity at 1.25 µM in test [2] (Well no.=7237) is 102%.
Consider `CCc1c(CC(N)=O)c2cc(OCCCP(=O)(O)O)ccc2n1Cc1ccccc1` [LY311727], for which the remaining activity at 3.75 µM in test [1] (Well no.=5502) was found to be 109%. The remaining activity at 1.25 µM in test [2] (Well no.=5502) was 102%.
With `C[C@H](NC(=O)[C@@H](O)c1cc(F)cc(F)c1)C(=O)N[C@@H]1C(=O)N(C)c2ccccc2-c2ccccc21` [LY411575], the remaining activity at 3.75 µM in test [1] (Well no.=4689) came out at 101%. Moreover, the remaining activity at 1.25 µM in test [2] (Well no.=4689) was 102%.
Take `O=C1NC(=O)C(c2cnc3ccccn23)=C1c1cn2c3c(cc(F)cc13)CN(C(=O)N1CCCCC1)CC2` [LY2090314]: the remaining activity at 3.75 µM in test [1] (Well no.=5645) was found to be 98.2%. In test [2] (Well no.=5645), the remaining activity at 1.25 µM was determined as 98.7%.
With `c1ccc(-c2nn3c(c2-c2ccnc4cc(OCCN5CCOCC5)ccc24)CCC3)nc1` [LY2109761], the remaining activity at 3.75 µM in test [1] (Well no.=4685) was found to be 103%. The remaining activity at 1.25 µM in test [2] (Well no.=4685) worked out at 103%.
With `Cc1cccc(-c2nn3c(c2-c2ccnc4ccc(C(N)=O)cc24)CCC3)n1` [LY2157299], in test [1] (Well no.=4856), the remaining activity at 3.75 µM was determined as 98.9%. Besides, the remaining activity at 1.25 µM in test [2] (Well no.=4856) came to 99.9%.
Regarding `CC(C)(C)Cn1c(N)nc2ccc(-c3[nH]c(C(C)(C)C)nc3-c3ccc(F)cc3)nc21` [LY2228820], in test [1] (Well no.=4915), the remaining activity at 3.75 µM is 99.6%. For the same compound, the remaining activity at 1.25 µM in test [2] (Well no.=4915) was found to be 98.6%.
Regarding `CC(C)NCCCC[C@H](NC(=O)[C@H]1CCC(=O)N[C@@H](Cc2ccccc2)C(=O)N[C@@H](Cc2ccc(O)cc2)C(=O)N[C@@H](CCCCNC(C)C)C(=O)N[C@H](CCCN=C(N)N)C(=O)N[C@@H](Cc2ccc3ccccc3c2)C(=O)NCC(=O)N1)C(N)=O` [LY2510924] (FY[Lys(iPr)][dR][2Nal]G[dE][Lys(iPr)]-NH2; lactam N-7), in test [1] (Well no.=8513), the remaining activity at 3.75 µM was determined as 102%. In addition, the remaining activity at 1.25 µM in test [2] (Well no.=8513) turned out to be 101%.
